Results taken from paper PMC12248599, “Exploring the Bioavailability of Red Grape Skin Extract Polyphenols: A Caco-2 Cell Model Study” (Foods, 2025).
Where “and” joins values, the source holds several entries; their conditions need not be identical. Equal values may be shown once. Marks after values point to notes of the source that are not given here.

Legend:
[1] = Caco-2 monolayer transport (bioavailability) study, AB and BA directions; assay type: in vitro ADME, Homo sapiens; conditions: human; for efflux ratio at 180 min, 15 mg/mL / efflux ratio at 180 min, 22 mg/mL: Caco-2, Papp (BA)/Papp (AB), read-out: ER (efflux ratio); for efflux ratio at 180 min, 15 mg/mL / Papp A→B at 180 min, 15 mg/mL / Papp B→A at 180 min, 15 mg/mL: S1 (15 mg/mL GSE); for efflux ratio at 180 min, 22 mg/mL / Papp A→B at 180 min, 22 mg/mL / Papp B→A at 180 min, 22 mg/mL: S2 (22 mg/mL GSE); for efflux ratio at 180 min: Caco-2, text statement, S1 and S2; for Papp A→B at 180 min, 15 mg/mL / Papp A→B at 180 min, 22 mg/mL / Papp B→A at 180 min, 15 mg/mL / Papp B→A at 180 min, 22 mg/mL: Caco-2; for Papp A→B at 180 min, 15 mg/mL / Papp A→B at 180 min, 22 mg/mL: apical to basolateral; for Papp B→A at 180 min, 15 mg/mL / Papp B→A at 180 min, 22 mg/mL: basolateral to apical
Procedure, shortened: (§1)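 Grape skin extract in HBSS (15 or 22 mg/mL) applied to 21-day Caco-2 monolayers (TEER ≥300 Ω cm²) in AB and BA directions; acceptor samples quantified per polyphenol by HPLC-UV. Papp from steady-state flux over 1.12 cm², efflux ratio as Papp(BA)/Papp(AB), plus transport efficiency (C/C0).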

Caco-2 cell monolayer = assay: as above; assay type: in vitro ADME, Homo sapiens; conditions: for TE (%) transport efficiency: after 180 min; for reduction in concentration on the apical (donor) side / reduction in concentration on the basolateral (donor) side: 0 to 180 min
Procedure, shortened: as §1

[2] = AB experiment, S1 (15 mg/mL GSE)
[3] = AB experiment, S2 (22 mg/mL GSE)
[4] = AB experiment, acceptor side, S1 (15 mg/mL GSE)
[5] = AB experiment, acceptor side, S2 (22 mg/mL GSE)
[6] = AB experiment, donor side, S1 (15 mg/mL GSE)
[7] = AB experiment, donor side, S2 (22 mg/mL GSE)
[8] = AB experiments, basolateral side
[9] = BA experiment, S1 (15 mg/mL GSE)
[10] = BA experiment, S2 (22 mg/mL GSE)
[11] = BA experiment, acceptor side, S1 (15 mg/mL GSE)
[12] = BA experiment, acceptor side, S2 (22 mg/mL GSE)
[13] = BA experiment, donor side, S1 (15 mg/mL GSE)
[14] = BA experiment, donor side, S2 (22 mg/mL GSE)

Structure (SMILES): O=C(O)c1cc(O)c(O)c(O)c1 [GA, gallic acid]
- efflux ratio at 180 min, 15 mg/mL [1]: 0.7
- efflux ratio at 180 min, 22 mg/mL [1]: 0.7
- efflux ratio at 180 min [1]: < 1
- Papp A→B at 180 min, 15 mg/mL [1]: 1690 ± 70 ×10⁻⁶ cm/s
- Papp A→B at 180 min, 22 mg/mL [1]: 1800 ± 200 ×10⁻⁶ cm/s
- Papp B→A at 180 min, 15 mg/mL [1]: 1150 ± 60 ×10⁻⁶ cm/s
- Papp B→A at 180 min, 22 mg/mL [1]: 1290 ± 5 ×10⁻⁶ cm/s
- TE (%) transport efficiency (Caco-2 cell monolayer; [2]): 156 ± 26%
- TE (%) transport efficiency (Caco-2 cell monolayer; [3]): 164 ± 23%
- Basolateral Side 75 min (Caco-2 cell monolayer; [4]): 8.1 ± 0.9 ^b mg/L
- Basolateral Side 90 min (Caco-2 cell monolayer; [4]): 8.6 ± 0.9 ^b mg/L
- Basolateral Side 115 min (Caco-2 cell monolayer; [4]): 9.1 ± 0.9 ^b mg/L
- Basolateral Side 180 min (Caco-2 cell monolayer; [4]): 9.4 ± 0.9 ^b mg/L
- Basolateral Side 75 min (Caco-2 cell monolayer; [5]): 8.1 ± 0.9 ^b mg/L
- Basolateral Side 90 min (Caco-2 cell monolayer; [5]): 8.6 ± 0.9 ^b mg/L
- Basolateral Side 115 min (Caco-2 cell monolayer; [5]): 9.1 ± 0.9 ^b mg/L
- Basolateral Side 180 min (Caco-2 cell monolayer; [5]): 9.6 ± 0.9 ^b mg/L
- Apical Side 0 min (Caco-2 cell monolayer; [6]): 6.1 ± 0.5 ^a mg/L
- Apical Side 75 min (Caco-2 cell monolayer; [6]): 5.0 ± 0.5 ^b mg/L
- Apical Side 90 min (Caco-2 cell monolayer; [6]): 4.1 ± 0.4 ^c mg/L
- Apical Side 115 min (Caco-2 cell monolayer; [6]): 3.4 ± 0.4 ^c,d mg/L
- Apical Side 180 min (Caco-2 cell monolayer; [6]): 2.9 ± 0.3 ^d mg/L
- Apical Side 0 min (Caco-2 cell monolayer; [7]): 5.9 ± 0.3 ^a mg/L
- Apical Side 75 min (Caco-2 cell monolayer; [7]): 5.0 ± 0.3 ^b mg/L
- Apical Side 90 min (Caco-2 cell monolayer; [7]): 4.4 ± 0.3 ^c mg/L
- Apical Side 115 min (Caco-2 cell monolayer; [7]): 3.7 ± 0.3 ^d mg/L
- Apical Side 180 min (Caco-2 cell monolayer; [7]): 3.2 ± 0.3 ^d mg/L
- detection at the acceptor side (Caco-2 cell monolayer; [8]): detected
- TE (%) transport efficiency (Caco-2 cell monolayer; [9]): 165 ± 6% and 164 ± 6%
- TE (%) transport efficiency (Caco-2 cell monolayer; [10]): 188 ± 4% and 188 ± 3%
- Apical Side 75 min (Caco-2 cell monolayer; [11]): 8.1 ± 0.3 ^a,b mg/L
- Apical Side 90 min (Caco-2 cell monolayer; [11]): 9.4 ± 0.2 ^b,c mg/L
- Apical Side 115 min (Caco-2 cell monolayer; [11]): 10.5 ± 0.3 ^c,d mg/L
- Apical Side 180 min (Caco-2 cell monolayer; [11]): 11.3 ± 0.3 ^d mg/L
- Apical Side 75 min (Caco-2 cell monolayer; [12]): 8.3 ± 0.5 ^a,b mg/L
- Apical Side 90 min (Caco-2 cell monolayer; [12]): 9.6 ± 0.5 ^b,c mg/L
- Apical Side 115 min (Caco-2 cell monolayer; [12]): 10.7 ± 0.6 ^c mg/L
- Apical Side 180 min (Caco-2 cell monolayer; [12]): 11.5 ± 0.7 ^c mg/L
- Basolateral Side 0 min (Caco-2 cell monolayer; [13]): 6.9 ± 0.3 ^a mg/L
- Basolateral Side 75 min (Caco-2 cell monolayer; [13]): 6.5 ± 0.3 ^b mg/L
- Basolateral Side 90 min (Caco-2 cell monolayer; [13]): 6.2 ± 0.3 ^c mg/L
- Basolateral Side 115 min (Caco-2 cell monolayer; [13]): 5.9 ± 0.3 ^d mg/L
- Basolateral Side 180 min (Caco-2 cell monolayer; [13]): 5.5 ± 0.2 ^c mg/L
- Basolateral Side 0 min (Caco-2 cell monolayer; [14]): 6.1 ± 0.4 ^a mg/L
- Basolateral Side 75 min (Caco-2 cell monolayer; [14]): 5.7 ± 0.4 ^b mg/L
- Basolateral Side 90 min (Caco-2 cell monolayer; [14]): 5.4 ± 0.4 ^c mg/L
- Basolateral Side 115 min (Caco-2 cell monolayer; [14]): 5.0 ± 0.4 ^d mg/L
- Basolateral Side 180 min (Caco-2 cell monolayer; [14]): 4.7 ± 0.3 ^d mg/L
- detection at the acceptor side (Caco-2 cell monolayer; BA experiments, apical side): detected

Structure (SMILES): O=C(/C=C/c1ccc(O)c(O)c1)O[C@@H](C(=O)O)[C@@H](O)C(=O)O [CA, caftaric acid]
- efflux ratio at 180 min, 15 mg/mL [1]: 1.3
- efflux ratio at 180 min, 22 mg/mL [1]: 1.4
- efflux ratio at 180 min [1]: > 1
- Papp A→B at 180 min, 15 mg/mL [1]: 74 ± 3 ×10⁻⁶ cm/s
- Papp A→B at 180 min, 22 mg/mL [1]: 51 ± 2 ×10⁻⁶ cm/s
- Papp B→A at 180 min, 15 mg/mL [1]: 93 ± 7 ×10⁻⁶ cm/s
- Papp B→A at 180 min, 22 mg/mL [1]: 73 ± 8 ×10⁻⁶ cm/s
- reduction in concentration on the apical (donor) side (Caco-2 cell monolayer; [2]): 59 ± 4%
- TE (%) transport efficiency (Caco-2 cell monolayer; [2]): 7 ± 1%
- reduction in concentration on the apical (donor) side (Caco-2 cell monolayer; [3]): 44.1 ± 0.7%
- TE (%) transport efficiency (Caco-2 cell monolayer; [3]): 4.4 ± 0.5% and 4.4 ± 0.4%
- Basolateral Side 75 min (Caco-2 cell monolayer; [4]): 0.06 ± 0.01 ^b mg/L
- Basolateral Side 90 min (Caco-2 cell monolayer; [4]): 0.06 ± 0.01 ^b,c mg/L
- Basolateral Side 115 min (Caco-2 cell monolayer; [4]): 0.06 ± 0.01 ^b,c mg/L
- Basolateral Side 180 min (Caco-2 cell monolayer; [4]): 0.07 ± 0.01 ^c mg/L
- Basolateral Side 75 min (Caco-2 cell monolayer; [5]): 0.07 ± 0.01 ^b mg/L
- Basolateral Side 90 min (Caco-2 cell monolayer; [5]): 0.07 ± 0.01 ^b,c mg/L
- Basolateral Side 115 min (Caco-2 cell monolayer; [5]): 0.08 ± 0.01 ^b mg/L
- Basolateral Side 180 min (Caco-2 cell monolayer; [5]): 0.08 ± 0.01 ^b mg/L
- Apical Side 0 min (Caco-2 cell monolayer; [6]): 1.04 ± 0.08 mg/L and 1.04 ± 0.08 ^a mg/L
- Apical Side 75 min (Caco-2 cell monolayer; [6]): 0.84 ± 0.07 ^b mg/L
- Apical Side 90 min (Caco-2 cell monolayer; [6]): 0.67 ± 0.07 ^c mg/L
- Apical Side 115 min (Caco-2 cell monolayer; [6]): 0.54 ± 0.07 ^d mg/L
- Apical Side 180 min (Caco-2 cell monolayer; [6]): 0.43 ± 0.07 mg/L and 0.43 ± 0.07 ^d mg/L
- Apical Side 0 min (Caco-2 cell monolayer; [7]): 1.82 ± 0.03 mg/L and 1.82 ± 0.03 ^a mg/L
- Apical Side 75 min (Caco-2 cell monolayer; [7]): 1.54 ± 0.03 ^b mg/L
- Apical Side 90 min (Caco-2 cell monolayer; [7]): 1.37 ± 0.02 ^c mg/L
- Apical Side 115 min (Caco-2 cell monolayer; [7]): 1.16 ± 0.02 ^d mg/L
- Apical Side 180 min (Caco-2 cell monolayer; [7]): 1.01 ± 0.01 mg/L and 1.01 ± 0.01 ^c mg/L
- detection at the acceptor side (Caco-2 cell monolayer; [8]): detected
- reduction in concentration on the basolateral (donor) side (Caco-2 cell monolayer; [9]): 43.5 ± 0.4%
- TE (%) transport efficiency (Caco-2 cell monolayer; [9]): 11.2 ± 0.8%
- reduction in concentration on the basolateral (donor) side (Caco-2 cell monolayer; [10]): 22.6 ± 0.8%
- TE (%) transport efficiency (Caco-2 cell monolayer; [10]): 8.7 ± 0.9%
- Apical Side 75 min (Caco-2 cell monolayer; [11]): 0.08 ± 0.01 ^b mg/L
- Apical Side 90 min (Caco-2 cell monolayer; [11]): 0.09 ± 0.01 ^c mg/L
- Apical Side 115 min (Caco-2 cell monolayer; [11]): 0.10 ± 0.01 ^d mg/L
- Apical Side 180 min (Caco-2 cell monolayer; [11]): 0.12 ± 0.01 ^c mg/L
- Apical Side 75 min (Caco-2 cell monolayer; [12]): 0.08 ± 0.01 ^a,b mg/L
- Apical Side 90 min (Caco-2 cell monolayer; [12]): 0.10 ± 0.01 ^a,b,c mg/L
- Apical Side 115 min (Caco-2 cell monolayer; [12]): 0.11 ± 0.01 ^b,c mg/L
- Apical Side 180 min (Caco-2 cell monolayer; [12]): 0.12 ± 0.01 ^c mg/L
- Basolateral Side 0 min (Caco-2 cell monolayer; [13]): 1.04 ± 0.03 ^a mg/L
- Basolateral Side 75 min (Caco-2 cell monolayer; [13]): 0.91 ± 0.02 ^b mg/L
- Basolateral Side 90 min (Caco-2 cell monolayer; [13]): 0.80 ± 0.02 ^c mg/L
- Basolateral Side 115 min (Caco-2 cell monolayer; [13]): 0.70 ± 0.02 ^c,d mg/L
- Basolateral Side 180 min (Caco-2 cell monolayer; [13]): 0.59 ± 0.02 ^c mg/L
- Basolateral Side 0 min (Caco-2 cell monolayer; [14]): 1.4 ± 0.1 ^a mg/L
- Basolateral Side 75 min (Caco-2 cell monolayer; [14]): 1.3 ± 0.1 ^b mg/L
- Basolateral Side 90 min (Caco-2 cell monolayer; [14]): 1.23 ± 0.09 ^c mg/L
- Basolateral Side 115 min (Caco-2 cell monolayer; [14]): 1.15 ± 0.08 ^d mg/L
- Basolateral Side 180 min (Caco-2 cell monolayer; [14]): 1.08 ± 0.08 ^c mg/L
